Laboratory results: paper PMC3673472, “Structural and functional insight into the universal stress protein family” (Evolutionary Applications, 2013)

Legend:
NE1028 = target: T1, NE1028 (Nitrosomonas europaea, UniProt Q82VN8); assay: X-ray crystal structure of the complex ([…] Å); details: cocrystallised with 10 mM AMP, pH 7.0, then soaked with 10 mM AMP for 24 h; ATP-binding site
T1 construct: full-length, N-terminal His6-TEV tag cleaved; wild type (not SeMet) in the AMP complex; homodimer

AF0826 = target: T2, AF0826 (Archaeoglobus fulgidus, UniProt O29432); assay: X-ray crystal structure of the complex ([…] Å); details: SeMet crystals (pH 5.5) soaked with a cocktail of adenine, adenosine, AMP, ADP, ATP, dAMP, cAMP, ADP-ribose; ligand identified from structure; ATP-binding site
T2 construct: gene AF_0826; N-terminal His6-TEV tag kept; selenomethionine-substituted; homodimer; strain printed only for AF1760 of the same species
T2 sequence (O29432 entry or part of it): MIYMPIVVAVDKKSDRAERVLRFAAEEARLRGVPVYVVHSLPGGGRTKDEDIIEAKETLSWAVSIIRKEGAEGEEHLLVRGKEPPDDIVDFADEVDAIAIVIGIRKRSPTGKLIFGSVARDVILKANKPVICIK

T1 sequence (Q82VN8 entry or part of it): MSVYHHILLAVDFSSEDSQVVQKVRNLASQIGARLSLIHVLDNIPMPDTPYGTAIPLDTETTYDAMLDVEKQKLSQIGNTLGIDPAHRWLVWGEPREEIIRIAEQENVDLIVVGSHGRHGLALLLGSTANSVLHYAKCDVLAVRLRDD

| Structure (SMILES) | X-ray crystal structure of the complex (2.00 Å) (NE1028) | X-ray crystal structure of the complex (2.10 Å) (AF0826) |
| --- | --- | --- |
| Nc1ncnc2c1ncn2[C@@H]1O[C@H](COP(=O)(O)O)[C@@H](O)[C@H]1O [AMP] | Our structure of NE1028–AMP confirms that the protein can bind at least one molecule |  |
| Nc1ncnc2c1ncn2[C@H]1C[C@H](O)[C@@H](COP(=O)(O)O)O1 [dAMP] |  | we obtained the structure of AF0826 with dAMP bound in the vicinity |
